Test system: MV-4-11 cells
Assay: Gene expression microarray analysis (Affymetrix PrimeView) and GSEA
Assay type: cell-based, human
Settings: gene C12orf56, chromosome 12 open reading frame 56; Azacitidine 1 mM; LIST F

`Nc1ncn([C@@H]2O[C@H](CO)[C@@H](O)[C@H]2O)c(=O)n1` [azacitidine] was tested, and the “RFU, C12orf56 (ProbeSet 11735607_a_at)” value was 185.59 RFU.

Source: article PMC5218480 (PLoS ONE, 2017)
